According to patent publication US10131652B2, “Pyrimidinyloxy benzene derivatives as herbicides” (E. I. DU PONT DE NEMOURS AND COMPANY, priority 2014, dated 2018):
Read-outs that look alike come from different tables or passages of the source.

Key:
Format in all cases: in vivo
[1] = test system: Italian ryegrass (Lolium multiflorum); assay: Test E pre-/postemergence plant response; conditions: scale 0 to 100, read-out: Plant response rating, Ryegrass, Italian; for pest or weed control at 16 g/ha: 16 g ai/ha; for pest or weed control at 31 g/ha: 31 g ai/ha; for pest or weed control at 62 g/ha: 62 g ai/ha; for pest or weed control at 125 g/ha: 125 g ai/ha
Description: (§1) Seeds of plant species selected from bluegrass (annual bluegrass, Poa annua), blackgrass (Alopecurus myosuroides), canarygrass (Phalaris minor), chickweed (common chickweed, Stellaria media), galium (catchweed bedstraw, Galium aparine), downy bromegrass (Bromus tectorum), field poppy (Papaver rhoeas), field violet (Viola arvensis), green foxtail (Setaria viridis), deadnettle (henbit deadnettle, Lamium amplexicaule), Italian ryegrass (Lolium multiflorum), kochia (Kochia scoparia), lambsquarters (Chenopodium album), oilseed rape (Brassica napus), pigweed (Amaranthus retroflexus), Russian thistle (Salsola iberica), chamomile (scentless chamomile, Matricaria inodora), speedwell (bird's-eye speedwell, Veronica persica), spring barley (Hordeum vulgare), spring wheat (Triticum aestivum), wild buckwheat (Polygonum convolvulus), wild mustard (Sinapis arvensis), wild oat (Avena fatua), wild radish (Raphanus raphanistrum), windgrass (Apera spica-venti), winter barley (Hordeum vulgare), and winter wheat (Triticum aestivum) were planted into a silt loam soil and treated preemergence with test chemicals formulated in a non-phytotoxic solvent mixture which included a surfactant. At the same time, these species were planted in pots containing Redi-Earth® planting medium (Scotts Company, 14111 Scottslawn Road, Marysville, Ohio 43041) comprising spaghnum peat moss, vermiculite, wetting agent and starter nutrients and treated with postemergence applications of the test chemicals formulated in the same manner. Plants ranged in height from 2 to 18 cm (1- to 4-leaf stage).
(§2) Treated plants and controls were maintained in a controlled growth environment for 7 to 21 days after which time all species were compared to controls and visually evaluated. Plant response ratings, summarized in Table E, are based on a scale of 0 to 100 where 0 is no effect and 100 is complete control. A dash (-) response means no test result.

[2] = test system: green foxtail (Setaria viridis); assay: Test E pre-/postemergence plant response; conditions: scale 0 to 100, read-out: Plant response rating, Foxtail, Green; for pest or weed control at 16 g/ha: 16 g ai/ha; for pest or weed control at 31 g/ha: 31 g ai/ha; for pest or weed control at 62 g/ha: 62 g ai/ha; for pest or weed control at 125 g/ha: 125 g ai/ha
Description: as §1, §2

[3] = test system: Italian ryegrass (Lolium multiflorum); assay: Test F pre-/postemergence plant response; conditions: Lolium multiflorum, scale 0 to 100, read-out: Plant response rating, Ryegrass, Italian; for pest or weed control at 16 g/ha: 16 g ai/ha; for pest or weed control at 31 g/ha: 31 g ai/ha; for pest or weed control at 125 g/ha: 125 g ai/ha
Method in brief: (§3)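 Plant response is a visual score from 0, meaning no effect, to 100, meaning complete control, assigned by comparison with untreated plants. Ratings were made 14 to 21 days after preemergence application to seeded silt loam or postemergence application to plants at the 1- to 4-leaf stage.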

[4] = test system: field bindweed (Convolvulus arvensis); assay: Test F pre-/postemergence plant response; conditions: Convolvulus arvensis, scale 0 to 100, read-out: Plant response rating, Field Bindweed
Method in brief: as §3

[5] = test system: goosegrass (Eleusine indica); assay: Test F pre-/postemergence plant response; conditions: Eleusine indica, pre-emergence, scale 0 to 100, read-out: Plant response rating, Goosegrass
Method in brief: as §3

[6] = test system: hairy beggarticks (Bidens pilosa); assay: Test F pre-/postemergence plant response; conditions: Bidens pilosa, scale 0 to 100, read-out: Plant response rating, Beggarticks
Method in brief: as §3

[7] = test system: kochia (Kochia scoparia); assay: Test F pre-/postemergence plant response; conditions: Bassia scoparia, scale 0 to 100, read-out: Plant response rating, Kochia; for pest or weed control at 16 g/ha: 16 g ai/ha; for pest or weed control at 31 g/ha: 31 g ai/ha; for pest or weed control at 125 g/ha: 125 g ai/ha
Method in brief: as §3

[8] = test system: lambsquarters (Chenopodium album); assay: Test F pre-/postemergence plant response; conditions: Chenopodium album, pre-emergence, Preemergence, scale 0 to 100, read-out: Plant response rating, Lambsquarters
Method in brief: as §3

[9] = test system: nightshade (eastern black nightshade, Solanum ptycanthum); assay: Test F pre-/postemergence plant response; conditions: Solanum, pre-emergence, scale 0 to 100, read-out: Plant response rating, Nightshade
Method in brief: as §3

[10] = test system: velvetleaf (Abutilon theophrasti); assay: Test F pre-/postemergence plant response; conditions: Abutilon theophrasti, pre-emergence, scale 0 to 100, read-out: Plant response rating, Velvetleaf
Method in brief: as §3

[11] = test system: yellow nutsedge (Cyperus esculentus); assay: Test F pre-/postemergence plant response; conditions: Cyperus, pre-emergence, scale 0 to 100, read-out: Plant response rating, Nutsedge, Yellow
Method in brief: as §3

[12] = post-emergence, 62 g ai/ha, Postemergence
[13] = post-emergence, 16 g ai/ha Postemergence
[14] = post-emergence, 31 g ai/ha Postemergence
[15] = post-emergence, 62 g ai/ha Postemergence
[16] = post-emergence, 125 g ai/ha Postemergence
[17] = pre-emergence, 16 g ai/ha Preemergence
[18] = pre-emergence, 31 g ai/ha Preemergence
[19] = pre-emergence, 62 g ai/ha Preemergence
[20] = pre-emergence, 125 g ai/ha Preemergence

Fc1cccc(Oc2ncc(Cl)cn2)c1-c1cc(C(F)F)no1 [Compound 144, 5-chloro-2-[2-[3-(difluoromethyl)-5-isoxazolyl]-3-fluorophenoxy]pyrimidine]
pest or weed control at 16 g/ha ([1]; post-emergence, Postemergence): 5% | pest or weed control at 31 g/ha ([1]; post-emergence, Postemergence): 15% | pest or weed control at 62 g/ha ([1]; post-emergence, Postemergence): 40% | pest or weed control at 125 g/ha ([1]; post-emergence, Postemergence): 65% | pest or weed control at 16 g/ha ([1]; pre-emergence, Preemergence): 10% | pest or weed control at 31 g/ha ([1]; pre-emergence, Preemergence): 25% | pest or weed control at 62 g/ha ([1]; pre-emergence, Preemergence): 70% | pest or weed control at 125 g/ha ([1]; pre-emergence, Preemergence): 100% | pest or weed control at 16 g/ha ([2]; post-emergence, Postemergence): 40% | pest or weed control at 31 g/ha ([2]; post-emergence, Postemergence): 50% | pest or weed control at 62 g/ha ([2]; post-emergence, Postemergence): 80% | pest or weed control at 125 g/ha ([2]; post-emergence, Postemergence): 100% | pest or weed control at 16 g/ha ([2]; pre-emergence, Preemergence): 20% | pest or weed control at 31 g/ha ([2]; pre-emergence, Preemergence): 35% | pest or weed control at 62 g/ha ([2]; pre-emergence, Preemergence): 95% | pest or weed control at 125 g/ha ([2]; pre-emergence, Preemergence): 100% | pest or weed control at 16 g/ha ([3]; post-emergence, Postemergence): 10% | pest or weed control at 31 g/ha ([3]; post-emergence, Postemergence): 20% | pest or weed control at 62 g/ha [3, 12]: 20% | pest or weed control at 125 g/ha ([3]; post-emergence, Postemergence): 40% | pest or weed control at 16 g/ha ([3]; pre-emergence, Preemergence): 0% | pest or weed control at 31 g/ha ([3]; pre-emergence, Preemergence): 0% | pest or weed control at 125 g/ha ([3]; pre-emergence, Preemergence): 100% | pest or weed control at 62 g/ha ([3]; pre-emergence, Preemergence): 40% | pest or weed control at 16 g/ha [4, 13]: 70% | pest or weed control at 31 g/ha [4, 14]: 75% | pest or weed control at 62 g/ha [4, 15]: 80% | pest or weed control at 125 g/ha [4, 16]: 90% | pest or weed control at 16 g/ha [4, 17]: 40% | pest or weed control at 31 g/ha [4, 18]: 60% | pest or weed control at 62 g/ha [4, 19]: 65% | pest or weed control at 125 g/ha [4, 20]: 70% | pest or weed control at 16 g/ha ([5]; 16 g ai/ha Preemergence): 75% | pest or weed control at 31 g/ha ([5]; 31 g ai/ha Preemergence): 60% | pest or weed control at 125 g/ha ([5]; 125 g ai/ha Preemergence): 100% | pest or weed control at 62 g/ha ([5]; Preemergence): 95% | pest or weed control at 16 g/ha [6, 13]: 70% | pest or weed control at 31 g/ha [6, 14]: 60% | pest or weed control at 62 g/ha [6, 15]: 70% | pest or weed control at 125 g/ha [6, 16]: 75% | pest or weed control at 16 g/ha [6, 17]: 0% | pest or weed control at 31 g/ha [6, 18]: 0% | pest or weed control at 62 g/ha [6, 19]: 0% | pest or weed control at 125 g/ha [6, 20]: 0% | pest or weed control at 16 g/ha ([7]; post-emergence, Postemergence): 95% | pest or weed control at 31 g/ha ([7]; post-emergence, Postemergence): 95% | pest or weed control at 62 g/ha [7, 12]: 95% | pest or weed control at 125 g/ha ([7]; post-emergence, Postemergence): 95% | pest or weed control at 16 g/ha ([7]; pre-emergence, Preemergence): 98% | pest or weed control at 31 g/ha ([7]; pre-emergence, Preemergence): 100% | pest or weed control at 125 g/ha ([7]; pre-emergence, Preemergence): 100% | pest or weed control at 62 g/ha ([7]; pre-emergence, Preemergence): 100% | pest or weed control at 16 g/ha ([8]; 16 g ai/ha): 100% | pest or weed control at 31 g/ha ([8]; 31 g ai/ha): 100% | pest or weed control at 125 g/ha ([8]; 125 g ai/ha): 100% | pest or weed control at 62 g/ha [8]: 100% | pest or weed control at 16 g/ha ([9]; 16 g ai/ha Preemergence): 98% | pest or weed control at 31 g/ha ([9]; 31 g ai/ha Preemergence): 98% | pest or weed control at 125 g/ha ([9]; 125 g ai/ha Preemergence): 100% | pest or weed control at 62 g/ha ([9]; Preemergence): 100% | pest or weed control at 16 g/ha ([10]; 16 g ai/ha Preemergence): 80% | pest or weed control at 31 g/ha ([10]; 31 g ai/ha Preemergence): 100% | pest or weed control at 125 g/ha ([10]; 125 g ai/ha Preemergence): 100% | pest or weed control at 62 g/ha ([10]; Preemergence): 100% | pest or weed control at 16 g/ha ([11]; 16 g ai/ha Preemergence): 0% | pest or weed control at 31 g/ha ([11]; 31 g ai/ha Preemergence): 0% | pest or weed control at 125 g/ha ([11]; 125 g ai/ha Preemergence): 0% | pest or weed control at 62 g/ha ([11]; Preemergence): 0%
